# Activity calls are given as the source filed them.
# Tests used:
# Cytochrome P450 3A4 = Cytochrome P450 3A4 (Homo sapiens, UniProt P08684);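 further: CYP3A4 tested as one member of a cytochrome P450 panel screen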
# [1] = target: T1, Heat shock factor protein 1 (Mus musculus, UniProt P38532); experiment: enhancement of HSF1-driven luciferase signal – cell-based, NIH3T3, luminescence, dose retest, confirmation (AID 435004); type: functional;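 further: stress induced by proteasome inhibitor MG132 added 30 min after compound; luciferase reporter driven by HSF1 response element in NIH3T3 cells; actives raise luminescence as potentiators of the MG132 stress response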
# T1 sequence (P38532 whole entry): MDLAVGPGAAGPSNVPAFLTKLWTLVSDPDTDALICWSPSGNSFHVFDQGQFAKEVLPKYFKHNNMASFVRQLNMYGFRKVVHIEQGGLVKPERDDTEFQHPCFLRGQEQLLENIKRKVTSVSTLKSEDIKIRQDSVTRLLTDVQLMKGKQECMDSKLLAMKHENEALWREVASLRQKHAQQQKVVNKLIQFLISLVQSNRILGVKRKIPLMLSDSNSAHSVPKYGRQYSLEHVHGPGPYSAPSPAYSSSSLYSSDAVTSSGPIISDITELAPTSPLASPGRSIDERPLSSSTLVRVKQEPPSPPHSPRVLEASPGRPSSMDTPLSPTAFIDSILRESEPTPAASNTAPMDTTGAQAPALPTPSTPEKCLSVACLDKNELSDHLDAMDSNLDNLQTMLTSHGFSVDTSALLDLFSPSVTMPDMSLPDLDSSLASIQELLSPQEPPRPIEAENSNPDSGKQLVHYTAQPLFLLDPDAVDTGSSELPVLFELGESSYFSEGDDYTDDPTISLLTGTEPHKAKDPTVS
# Cytochrome P450 2C19 = Cytochrome P450 2C19 (Homo sapiens, UniProt P33261); experiment: Cytochrome panel assay with activity outcomes. Panel member name: p450-cyp2c19 Compounds with AC50 equal or less than 10 uM are considered active; type: functional
# [2] = Luminescence Cell-Based Dose Response HTS to Identify Inhibitors of 5'UTR Stem-Loop Driven Prion Protein mRNA Translation in H4 Neuroglioblastoma Cells. [Related pubchem assays: 1827 (Project Summary), 1813 (Primary HTS)]; type: functional
# [3] = luciferase reporter signal suppression in cells – H4 neuroglioma cells, luminescence, dose response (AID 1990); type: functional, cell-based
# [4] = alpha-synuclein stem-loop luciferase translation blockers – H4 neuroglioma cells, luminescence, confirmation (AID 1988); type: functional, cell-based
# [5] = target: T1, Heat shock factor protein 1; experiment: decrease of HSF1-responsive luciferase luminescence – cell-based, NIH3T3, dose retest, confirmation (AID 2382); type: functional;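 further: NIH3T3 fibroblasts with HSF1-driven luciferase reporter stressed by proteasome inhibitor MG132; luminescence from HSF1-driven luciferase expression after 8 hours of MG132 stress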
# [6] = NIH3T3 cell viability loss – ATP luminescence, mouse fibroblasts, counter-screen, dose response (AID 2010); type: functional, cell-based;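 further: cells exposed to compound for about 90 hours before reading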
# [7] = Trypanosoma cruzi growth suppression in host cells – NIH3T3 host cells, beta-gal luminescence, confirmation (AID 2044); type: functional, cell-based;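 further: intracellular parasites grown in NIH/3T3 mouse fibroblasts as host cells; luminescent beta-galactosidase reporter signal from transgenic T. cruzi replicating inside host cells; inhibitors lower the luminescence signal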
# Streptococcus = experiment: GAS UMAA2166 growth inhibition – luminescence, BacTiterGlo, counter-screen for streptokinase expression inhibitor project, dose response (AID 1915); type: functional, organism-based;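 further: potency for reduction of bacterial viability or growth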
# [8] = test system: Streptococcus sp. 'group A'; experiment: Streptococcus pyogenes SK(-)GAS viability under kanamycin – luminescence, BacTiterGlo, confirmation, counter-screen for streptokinase expression inhibitor project, dose response (AID 1900); type: functional, organism-based
# Cytochrome P450 2C19, sequence (P33261 whole entry): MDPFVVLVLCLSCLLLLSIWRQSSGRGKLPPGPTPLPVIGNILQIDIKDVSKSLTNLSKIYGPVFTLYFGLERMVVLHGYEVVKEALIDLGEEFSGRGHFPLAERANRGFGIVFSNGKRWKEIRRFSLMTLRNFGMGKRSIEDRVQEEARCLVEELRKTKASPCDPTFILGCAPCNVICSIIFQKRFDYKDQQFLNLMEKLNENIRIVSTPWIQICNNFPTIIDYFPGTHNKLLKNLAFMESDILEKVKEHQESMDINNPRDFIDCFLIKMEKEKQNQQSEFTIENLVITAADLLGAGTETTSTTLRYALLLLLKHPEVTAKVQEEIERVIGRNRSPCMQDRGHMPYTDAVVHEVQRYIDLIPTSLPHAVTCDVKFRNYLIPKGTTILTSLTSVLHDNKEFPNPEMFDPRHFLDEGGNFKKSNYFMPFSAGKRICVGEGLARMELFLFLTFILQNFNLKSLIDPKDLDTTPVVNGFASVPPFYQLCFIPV
# Cytochrome P450 3A4, sequence (P08684 whole entry): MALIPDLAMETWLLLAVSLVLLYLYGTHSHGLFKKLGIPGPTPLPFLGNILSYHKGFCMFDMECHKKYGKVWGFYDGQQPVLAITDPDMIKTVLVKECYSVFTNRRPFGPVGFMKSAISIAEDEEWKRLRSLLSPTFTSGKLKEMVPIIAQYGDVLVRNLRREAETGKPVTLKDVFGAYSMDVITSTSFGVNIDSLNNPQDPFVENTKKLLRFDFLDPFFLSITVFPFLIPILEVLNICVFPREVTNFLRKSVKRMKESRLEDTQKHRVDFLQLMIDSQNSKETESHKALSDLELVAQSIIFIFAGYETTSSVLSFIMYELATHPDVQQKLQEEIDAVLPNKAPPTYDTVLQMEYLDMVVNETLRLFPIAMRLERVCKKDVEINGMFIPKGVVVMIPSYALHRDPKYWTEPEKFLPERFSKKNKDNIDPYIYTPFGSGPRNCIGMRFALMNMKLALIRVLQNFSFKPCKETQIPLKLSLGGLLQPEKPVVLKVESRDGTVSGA
compound,measurement,setting,value
Nc1cc(Cl)ccc1Oc1ccccc1,AC50,Cytochrome P450 3A4,22.4 µM (inconclusive)
Cc1cc(C)n(Cc2ccc(Cl)cc2Cl)c(=O)c1S(=O)(=O)c1ccccc1,EC50,[1],> 260 µM (inactive)
CCOC(=O)CCCNC(=O)CCCNC(=O)C(c1ccccc1)c1ccccc1,AC50,Cytochrome P450 3A4,8.91 µM (inconclusive)
same,AC50,Cytochrome P450 2C19; read-out: AC50,14.1 µM (inconclusive)
Cc1ccc(-c2nnc(N3CCN(C(=O)c4cccs4)CC3)c3ccccc23)cc1,EC50,[2],> 120 µM (not active)
same,EC50,[3],> 120 µM (not active)
same,EC50,[4],22 µM (active)
CCOc1cc(OCC)cc(C(=O)O)c1,EC50,[5],> 195 µM (not active)
CCc1cc2c(nc1CC)CCN(CC/C(C)=N/OC[C@@H](C)[C@H](OCc1ccccc1)C(C)C)C2,AC50,Cytochrome P450 3A4,3.98 µM (inconclusive)
Cn1cccc1C(=O)N1CCC2(CCCN(C(=O)Nc3ccccc3)C2)CC1,AC50,Cytochrome P450 3A4,31.6 µM (inconclusive)
CCn1c(SCC(=O)Nc2nc(C)c(C)s2)nnc1-c1cccnc1,EC50,[2],> 120 µM (not active)
same,EC50,[3],> 120 µM (not active)
same,EC50,[4],> 120 µM (not active)
COc1ccc(CN(CC2CCC(C(=O)O)CC2)C(=S)Nc2ccc(C)c(Cl)c2)cc1 (stereo not drawn),EC50,[6],> 60 µM (not active)
same,EC50,[7],> 60 µM (not active)
COC(=O)C1=CN(Cc2ccc(OC)c(OC)c2)C=C(C(=O)OC)C1c1cccc(F)c1,EC50,[2],> 120 µM (not active)
same,EC50,[3],15.1 µM (active)
same,EC50,[6],> 60 µM (not active)
same,EC50,[4],65.7 µM (active)
same,EC50,[7],0.156 µM (active)
CCOC(=O)c1ccc(-c2c(-c3cc(OC)c(OC)c(OC)c3)noc2C)cc1F,EC50,[2],11.4 µM (active)
same,EC50,[3],9.94 µM (inconclusive)
same,EC50,[4],1.43 µM (active)
COc1ccc(C)cc1S(=O)(=O)Nc1cc2c3c(c1)CCC(=O)N3CCC2,EC50,[5],> 195 µM (not active)
COc1ccc(CN2CC(=O)N(c3ccc(C)c(C)c3)C2=S)cc1OC,EC50,[2],> 120 µM (not active)
same,EC50,[3],21.3 µM (active)
same,EC50,[4],20.4 µM (active)
Cc1cc(CN2CCN(CCC#N)CC2)c(O)c(C2(C)CCCCC2)c1,EC50,[6],> 60 µM (not active)
same,EC50,[7],1.1 µM (active)
CCOC(=O)Cc1cnc(NC(=O)c2ccccc2)s1,EC50,[5],> 195 µM (not active)
CCN(C(=O)c1cccc(S(=O)(=O)N2CCCCC2)c1)C1CCS(=O)(=O)C1 (stereo not drawn),EC50,[1],> 260 µM (inactive)
CC(C)(C)OC(=O)N1CCN(C(=O)c2[nH]cnc2C(=O)NCC(=O)OCc2ccccc2)CC1,EC50,[5],> 195 µM (not active)
O=C(c1ccc(SCc2cccc(Br)c2)c([N+](=O)[O-])c1)N1CCN(c2ccccn2)CC1,EC50,[6],> 60 µM (not active)
same,EC50,[7],2.08 µM (active)
O=C(Nc1c2c(nn1-c1ccc(F)cc1)CS(=O)(=O)C2)C12CC3CC(CC(C3)C1)C2,AC50,Cytochrome P450 2C19,inconclusive
O=C(Cc1ccccc1)NCCSCc1ccc(Cl)cc1,AC50,Cytochrome P450 3A4,14.1 µM (inconclusive)
Nc1nc(NC(=O)C(Cl)(Cl)Cl)nn1-c1ccccc1,EC50,[5],> 195 µM (not active)
CC(CCCC(C)(C)O)NC(=O)c1ccc2oc(CCc3ccccc3)nc2c1 (stereo not drawn),EC50,[5],> 195 µM (not active)
O=C1[C@H]2[C@H]3[C@H](O)[C@H](O)C/C(=N/OC[C@@H](O)COCc4ccco4)[C@@H]3CC[C@@H]2C(=O)N1c1cccc(Oc2ccccc2)c1,AC50,Cytochrome P450 3A4,7.94 µM (inconclusive)
Cc1ccc2[nH]c(SCC(=O)Nc3cccc(S(=O)(=O)NC4=NCCCCC4)c3)nc2c1,EC50,[1],> 260 µM (inactive)
O=C1CCN(Cc2ccccc2)N1,EC50,[1],> 260 µM (inactive)
COc1ccc(OC)c(C2CC(=O)Nc3[nH]nc(-c4ccccc4)c32)c1 (stereo not drawn),EC50,[2],> 120 µM (not active)
same,EC50,[3],> 120 µM (not active)
same,EC50,[4],> 120 µM (not active)
COC(=O)c1ccc(COc2cccc3c2CCN(Cc2cccc(C)c2)C3=O)o1,EC50,[2],> 120 µM (not active)
same,EC50,[3],> 120 µM (not active)
same,EC50,[4],107 µM (active)
CN1CC[C@@]2(CCCN(C(=O)c3cccn3C)C2)C1,AC50,Cytochrome P450 3A4,7.94 µM (inconclusive)
O=C(/C=C/c1ccccc1)NC(=S)N1CCSCC1,EC50,[5],> 195 µM (not active)
Cc1ccc(-c2nnn(CC(=O)N(Cc3cccs3)C(C(=O)NC3CCCC3)c3ccncc3)n2)cc1 (stereo not drawn),EC50,[5],> 195 µM (not active)
Cc1ccc(S(=O)(=O)c2c(C)cc(C)nc2Cl)c(C)c1,EC50,[6],> 60 µM (not active)
same,EC50,[7],2 µM (active)
Cc1ccc(N2C(=O)c3ccccc3NC2C(C)Cc2ccc3c(c2)OCO3)cc1 (stereo not drawn),EC50,[6],> 30 µM (not active)
same,EC50,[7],2.61 µM (active)
Cc1ccc([N+](=O)[O-])c(OCCCN2CCC(Cc3ccccc3)CC2)c1,EC50,[5],> 195 µM (not active)
C=CCOc1ccc(/C=C/C(=O)OCC(=O)NCC2CCCCC2)cc1,EC50,[5],> 195 µM (not active)
COc1ccc(/C=C2\CCCC3C2=NN(C(=O)COC(=O)CNC(=O)c2ccccc2)C3c2ccc(OC)cc2)cc1 (stereo not drawn),EC50,[5],> 195 µM (not active)
COc1ccc(C(=O)N2CCC3(CCCN(CC(C)C)C3)CC2)cc1,AC50,Cytochrome P450 3A4,25.1 µM (inconclusive)
Cc1ccc(N(C)C(=O)CN(C)S(=O)(=O)c2ccc3c(c2)n(C)c(=O)c(=O)n3C)cc1,EC50,[5],> 195 µM (not active)
CCOc1c(C)cc(S(=O)(=O)NCc2cccnc2)c(C)c1C,EC50,[5],> 195 µM (not active)
Oc1nc(CN2CCN(C/C=C/c3ccccc3)CC2)nc2cc(Cl)ccc12,EC50,[6],> 60 µM (not active)
same,EC50,[7],0.405 µM (active)
Cc1cccc(C)c1NC(=O)c1cc2c(=O)c3ccccc3oc2nc1C(F)(F)F,AC50,Cytochrome P450 3A4,0.0501 µM (inconclusive)
same,AC50,Cytochrome P450 2C19,inconclusive
CCOC(=O)c1c(-c2ccc(C)cc2)cn2ccccc12,EC50,[1],> 260 µM (inactive)
COC(=O)C1=C(C)N(CCc2c[nH]c3ccc(OC)cc23)C(=O)C1,EC50,[2],> 120 µM (not active)
same,EC50,[3],> 120 µM (not active)
same,EC50,[4],> 120 µM (not active)
CO[C@@H]1COC(=O)CCC[C@@H](C)[C@H](OC)COC(=O)[C@H](Cc2ccccc2)NC(=O)C/C=C\[C@H]1C,AC50,Cytochrome P450 2C19; read-out: AC50,0.00251 µM (inconclusive)
COCCNC(=O)c1cccc(OC2CCN(Cc3ccc(Cl)c(F)c3)CC2)c1,EC50,[1],> 260 µM (inactive)
S=C(Nc1ccc(Br)cc1Cl)NC1CCN(Cc2ccccc2)CC1,EC50,[6],> 30 µM (not active)
same,EC50,[7],0.228 µM (active)
N=c1sccn1CC(=O)Nc1cc(Cl)ccc1Oc1ccccc1,EC50,[1],> 260 µM (inactive)
COc1cccc(-n2c(SCC(=O)Nc3sc4c(c3C(N)=O)CCC4)nc3ccccc3c2=O)c1,EC50,[6],> 60 µM (not active)
same,EC50,[7],2.9 µM (active)
CC(C)c1cccc2cc3c(nc12)-c1cccc(=O)n1C3,AC50,Cytochrome P450 2C19; read-out: AC50,39.8 µM (inconclusive)
CSCC[C@H](NC(=O)CC(C)(C)C)c1nc2ccccc2[nH]1,AC50,Cytochrome P450 3A4,15.8 µM (inconclusive)
O=C(NCCN1Cc2ccccc2C1=O)c1cccs1,EC50,[1],> 260 µM (inactive)
COc1ccc(C(=O)NCc2nnc(SCC(=O)N3CCC(C)CC3)o2)cc1OC,EC50,[5],> 195 µM (not active)
N#CCn1c2ccccc2c2nc3ccccc3nc21,EC50,[2],> 120 µM (not active)
same,EC50,[3],23.3 µM (active)
same,EC50,[4],> 120 µM (not active)
CC(=O)C1=C(O)C=C(c2ccco2)CC1c1ccco1 (stereo not drawn),AC50,Cytochrome P450 3A4,20 µM (inconclusive)
same,AC50,Cytochrome P450 2C19; read-out: AC50,2.24 µM (inconclusive)
O=C(Nc1nc(-c2ccccc2)cs1)C1CCCCN1S(=O)(=O)c1ccc(Cl)cc1 (stereo not drawn),EC50,[6],> 60 µM (not active)
same,EC50,[7],2.22 µM (active)
CC(=O)c1[nH]c(C)c(C(C)=O)c1C,AC50,Cytochrome P450 3A4,20 µM (inconclusive)
CC1CCCC(C)N1CC(O)COCC1COc2ccccc2O1.Cl (stereo not drawn),AC50,Cytochrome P450 2C19,inconclusive
Cc1cc(-c2c(C)[nH]n(-c3ccc(Cl)cc3)c2=O)[nH]n1,EC50,Streptococcus,> 150 µM (not active)
same,EC50,[8],2.51 µM (active)
COc1cc(OC)c(OC)cc1/C=N/NC(=S)NCC1CCCO1 (stereo not drawn),EC50,[5],> 195 µM (not active)
O=[N+]([O-])c1ccccc1/C=N/n1c(S)nnc1COc1ccccc1,AC50,Cytochrome P450 2C19; read-out: AC50,11.2 µM (inconclusive)
COc1cccc2cc(C(=O)NCc3ccco3)/c(=N/c3ccc(C(=O)O)cc3)oc12,EC50,[5],> 195 µM (not active)
C/C(=N\Nc1nnc(-c2ccccc2)c(-c2ccccc2)n1)c1cccc([N+](=O)[O-])c1,AC50,Cytochrome P450 3A4,35.5 µM (inconclusive)
same,AC50,Cytochrome P450 2C19; read-out: AC50,17.8 µM (inconclusive)
C/C(=N\CCc1c(C)[nH]c2ccc(OCc3ccccc3)cc12)C1=C(O)CC(c2ccccc2)CC1=O (stereo not drawn),EC50,[6],> 60 µM (not active)
same,EC50,[7],2.1 µM (active)
Oc1ccc(OCc2ccccc2)cc1 [MONOBENZONE],AC50,Cytochrome P450 2C19; read-out: AC50,6.31 µM (inconclusive)
